Where a name gives a salt, the structure may show the parent alone. Read-outs that look alike come from different tables or passages of the source.
System: PRKACA-PRKAR2A interaction (SmBiT-PRKACA / LgBiT-PRKAR2A), protein kinase A
Design: NanoLuc complementation counter-screen in cell extract, PRKACA with PRKAR2A, loss of luminescence, detects NanoLuc interference
Settings: counter-screen for NanoLuc interference, 0.5 h, 20 µM, inhibitor

SMILES	Inh (PKA)	Inh (PKA) (Inh (PKA))
NC(=O)Nc1sc(-c2ccc(F)cc2)cc1C(N)=O [UM0127870:03, TPCA-1]	19.86%	–
COc1ccc(Cl)cc1NC(=O)Nc1cc(C)nc2ccccc12 [UM0127873:03, PQ 401]	19.94%	–
O=C(Nc1nc2ccccc2n1CCN1CCOCC1)c1cccc([N+](=O)[O-])c1 [UM0127874:03, IRAK-1-4 Inhibitor I]	12.44%	–
CC(C)(C)c1nc2c3cc[nH]c(=O)c3c3cc(F)ccc3c2[nH]1 [UM0127875:02, Pyridone 6]	10.77%	–
COc1cc2ncnc(Nc3ccc(O)c(Br)c3)c2cc1OC [UM0127876:02, WHI-P154]	9.14%	–
O=c1cc(N2CCOCC2)oc2c(-c3ccccc3)cccc12 [UM0127884:02, LY 294002]	0.5276%	–
N#C/C(=C(/N)Sc1ccc(N)cc1)c1ccccc1C(F)(F)F [UM0127888:02, SL-327]	49.94%	–
Cc1[nH]c(/C=C2\C(=O)Nc3ccc(S(=O)(=O)N(C)c4cccc(Cl)c4)cc32)c(C)c1C(=O)N1CCN(C)CC1 [UM0127889:02, SU11274]	71.51%	–
Nc1ncnc2n[nH]c(Nc3ccc(F)cc3)c12 [UM0127890:04, CGP 57380]	5.777%	–
Nc1ccc2ncnc(NCCc3ccc(Oc4ccccc4)cc3)c2c1 [UM0127892:02, QNZ (EVP4593)]	24.11%	–
COc1cccc(-c2cc(=O)c3ccccc3o2)c1N [UM0127895:04, PD98059]	12.91%	–
Oc1cccc(-c2nc(N3CCOCC3)c3oc4ncccc4c3n2)c1 [UM0127905:03, PI-103]	–	4.016%
C[S+]([O-])c1ccc(-c2nc(-c3ccc(F)cc3)c(-c3ccncc3)[nH]2)cc1 (stereo not shown) [UM0127917:04, SB 203580]	–	16.51%
c1ccc(-c2[nH]ncc2-c2ccnc3ccccc23)nc1 [UM0127931:02, LY364947]	7.119%	–
N#C/C(=C\c1ccc(O)c(O)c1)C(=O)NCc1ccccc1 [UM0127932:03, AG-490]	36.26%	–
COc1cc2ncc(-c3ccccc3)nc2cc1OC [UM0127935:03, Tyrphostin AG 1296]	8.299%	–
Cc1nc(Nc2ncc(C(=O)Nc3c(C)cccc3Cl)s2)cc(N2CCN(CCO)CC2)n1 [UM0127943:04, Dasatinib (BMS-354825)]	9.592%	–
C#Cc1cccc(Nc2ncnc3cc(OCCOC)c(OCCOC)cc23)c1 [UM0127944:02, Erlotinib]	–	7.481%
Cc1cc(C(=O)NOCCO)c(Nc2ccc(I)cc2F)n(C)c1=O [UM0127946:02, AZD8330]	1.892%	–
Cc1ccc(-n2nc(C(C)(C)C)cc2NC(=O)Nc2ccc(OCCN3CCOCC3)c3ccccc23)cc1 [UM0127947:02, BIRB 796 (Doramapimod)]	10.73%	–
CCCS(=O)(=O)Nc1ccc(F)c(C(=O)c2c[nH]c3ncc(Cl)cc23)c1F [UM0127949:04, PLX-4720]	29.68%	–
CNC(=O)c1cc(Oc2ccc(NC(=O)Nc3ccc(Cl)c(C(F)(F)F)c3)cc2)ccn1 [UM0127950:06, Sorafenib]	–	5.105%
Cc1ccc(NC(=O)c2ccc(CN3CCN(C)CC3)cc2)cc1Nc1nccc(-c2cccnc2)n1 [UM0127952:03, Imatinib (STI571)]	–	7.189%
CS(=O)(=O)CCNCc1ccc(-c2ccc3ncnc(Nc4ccc(OCc5cccc(F)c5)c(Cl)c4)c3c2)o1 [UM0127953:02, Lapatinib]	–	55.05%
Cc1ccc(NC(=O)c2ccc(CN3CCN(C)CC3)cc2)cc1Nc1nc(-c2cccnc2)cs1 [UM0127954:03, Masitinib (AB1010)]	15.54%	–
Cc1cn(-c2cc(NC(=O)c3ccc(C)c(Nc4nccc(-c5cccnc5)n4)c3)cc(C(F)(F)F)c2)cn1 [UM0127956:03, Nilotinib(AMN-107)]	17.26%	–
CC[C@H](CO)Nc1nc(NCc2ccccc2)c2ncn(C(C)C)c2n1 [UM0127958:02, Roscovitine (Seliciclib,CYC202)]	10.31%	–

More lines, now with the values ahead:

Inh (PKA)	Inh (PKA) (Inh (PKA))	SMILES
–	11.23%	Cc1ccc(Nc2nccc(N(C)c3ccc4c(C)n(C)nc4c3)n2)cc1S(N)(=O)=O [UM0127957:02, Pazopanib (GW-786034)]
9.039%	–	Cc1cc(Nc2cc(N3CCN(C)CC3)nc(Sc3ccc(NC(=O)C4CC4)cc3)n2)n[nH]1 [UM0127961:02, VX-680 (MK-0457,Tozasertib)]
5.275%	–	COc1cc2/c(=N/c3ccc(Br)cc3F)nc[nH]c2cc1OCC1CCN(C)CC1 [UM0127962:02, Vandetanib (ZD6474)]
–	26.41%	Clc1ccc(Nc2nnc(Cc3ccncc3)c3ccccc23)cc1 [UM0127963:02, Vatalanib (PTK787) 2HCl]
–	29.07%	Clc1ccc(Nc2nnc(Cc3ccncc3)c3ccccc23)cc1 [UM0127963:03, Vatalanib]
6.199%	–	NC(=O)c1ccc(N(C(N)=O)c2c(F)cccc2F)nc1-c1ccc(F)cc1F [UM0127964:03, VX-702]
24.58%	–	Cc1ccc(NC(=O)c2cccc(C(C)(C)C#N)c2)cc1Nc1ccc2ncn(C)c(=O)c2c1 [UM0127965:02, AZ 628]
–	12.14%	Cc1cccc(-c2[nH]c(C(C)(C)C)nc2-c2ccc3c(c2)OCO3)n1 [UM0127976:02, SB-505124 hydrochloride]
–	-2.944%	C[C@@H]1CCN(C(=O)CC#N)C[C@@H]1N(C)c1ncnc2[nH]ccc12 [UM0128176:02, Tofacitinib (CP-690550,Tasocitinib)]
1.396%	–	O=C(O)c1ccnc(C(=O)O)c1 [UM0128207:03, 2,4-Pyridinedicarboxylic Acid]
34.51%	–	CCCS(=O)(=O)Nc1ccc(F)c(C(=O)c2c[nH]c3ncc(-c4ccc(Cl)cc4)cc23)c1F [UM0128310:03, Vemurafenib (PLX4032, RG7204)]
3.519%	–	CC(/C=C/C(=O)NO)=C\[C@@H](C)C(=O)c1ccc(N(C)C)cc1 [UM0128540:02, Trichostatin A (TSA)]
1.175%	–	O=C1CCc2c(ccc3ccccc23)O1 [UM0128542:02, Splitomicin]
3.14%	–	O=C(CCCCCN1C(=O)c2cccc3cccc(c23)C1=O)NO [UM0128546:02, Scriptaid]
0.991%	–	Nc1ncn([C@H]2C[C@H](O)[C@@H](CO)O2)c(=O)n1 [UM0128548:04, Decitabine (NSC127716, 5AZA-CdR)]
-0.4631%	–	O=c1ncccn1[C@@H]1O[C@H](CO)[C@@H](O)[C@H]1O [UM0128549:02, Zebularine]
13.93%	–	O=C(c1ccc(Cl)cc1Cl)n1nnc2ccccc21 [UM0128552:02, ITSA-1 (ITSA1)]
–	-0.4434%	CCCC(CCC)C(=O)O [UM0128554:02, Valproic acid]
3.362%	–	NC(=O)C1CCCc2c1[nH]c1ccc(Cl)cc21 (stereo not shown) [UM0128555:02, EX 527 (SEN0014196)]
25.41%	–	Oc1ccc(/C=C/c2cc(O)cc(O)c2)cc1 [UM0128556:03, Resveratrol]

Inh (PKA)	Inh (PKA) (Inh (PKA))	SMILES
17.81%	–	Oc1cc(O)cc(/C=C/c2ccc(O)c(O)c2)c1 [UM0128559:03, Piceatannol]
5.402%	–	CCCCCCCCCCCCCCCc1cccc(O)c1C(=O)O [UM0128565:02, Anacardic acid]
3.39%	–	CC(C)C(=O)SCCCCCCC(=O)Nc1nc(-c2ccccc2)cs1 [UM0128574:02, NCH 51]
-1.752%	–	CC(=O)Nc1ccc(C(=O)Nc2ccccc2N)cc1 [UM0128575:02, CI994 (Tacedinaline)]
10.59%	–	O=Nc1ccc(O)c2ncccc12 [UM0128576:03, NSC 3852]
0.9337%	–	COc1cc2c(NC3CCN(C(C)C)CC3)nc(C3CCCCC3)nc2cc1OCCCN1CCCC1 [UM0128581:02, UNC0638]
4.351%	–	CCN(c1cc(-c2ccc(CN3CCOCC3)cc2)cc(C(=O)NCc2c(C)cc(C)[nH]c2=O)c1C)C1CCOCC1 [UM0129937:03, EPZ-6438]
0.2399%	–	COc1cc2c(NC3CCN(C4CCCCC4)CC3)nc(N3CCCN(C(C)C)CC3)nc2cc1OCCCN1CCCCC1 [UM0129939:02, UNC 0646]
16.5%	–	Cn1cnc2c(F)c(Nc3ccc(Br)cc3Cl)c(C(=O)NOCCO)cc21 [UM0130968:04, AZD6244 (Selumetinib)]
70.13%	–	O=C(NOCC1CC1)c1ccc(F)c(F)c1Nc1ccc(I)cc1Cl [UM0130972:02, PD184352 (CI-1040)]
3.422%	–	COc1cc2nccc(Oc3ccc(NC(=O)NC4CC4)c(Cl)c3)c2cc1C(N)=O [UM0130973:02, Lenvatinib (E7080)]
49.88%	–	Cn1cc(C2=C(c3cn(C4CCN(Cc5ccccn5)CC4)c4ccccc34)C(=O)NC2=O)c2ccccc21 [UM0130974:02, Enzastaurin (LY317615)]
–	10.54%	C#Cc1cccc(Nc2ncnc3cc(OCCOC)c(OCCOC)cc23)c1 [UM0130975:02, Erlotinib Hydrochloride]
–	3.012%	CS(=O)(=O)N1CCN(Cc2cc3nc(-c4cccc5[nH]ncc45)nc(N4CCOCC4)c3s2)CC1 [UM0130976:02, GDC-0941]
2.214%	–	CC(=O)Nc1cccc(-n2c(=O)n(C3CC3)c(=O)c3c(Nc4ccc(I)cc4F)n(C)c(=O)c(C)c32)c1 [UM0130977:03, Trametinib (GSK1120212)]
–	10.22%	Cc1ccc(NC(=O)c2ccc(CN3CCN(C)CC3)cc2)cc1Nc1nccc(-c2cccnc2)n1 [UM0130978:02, Imatinib Mesylate (STI571)]
–	54.72%	CS(=O)(=O)CCNCc1ccc(-c2ccc3ncnc(Nc4ccc(OCc5cccc(F)c5)c(Cl)c4)c3c2)o1 [UM0130979:02, Lapatinib Ditosylate]
-1.488%	–	Nc1cccc2c1CN(C1CCC(=O)NC1=O)C2=O (stereo not shown) [UM0130980:03, Lenalidomide (CC-5013)]
6.14%	–	NC1(c2ccc(-c3nc4ccn5c(=O)[nH]nc5c4cc3-c3ccccc3)cc2)CCC1 [UM0130983:02, MK-2206 dihydrochloride]
37.9%	–	Cc1ccc(C(=O)Nc2cccc(C(F)(F)F)c2)cc1Nc1nc(-c2cccnc2)nc2c1cnn2C [UM0130987:02, NVP-BHG712]

Reference: publication PMC9995496, “A screen for MeCP2-TBL1 interaction inhibitors using a luminescence-based assay” (Scientific Reports, 2023)
